Reference: article PMC10447463, “Data-mining unveils structure–property–activity correlation of viral infectivity enhancing self-assembling peptides” (Nature Communications, 2023)
Where “and” joins values, the source holds several entries; their conditions need not be identical. Equal values may be shown once. Read-outs that look alike come from different tables or passages of the source.

How the values were obtained:
[1] = tested on: HIV-1 infection of TZM-bl cells; test: HIV-1 infectivity enhancement assay, β-galactosidase luminescence; type: cell-based; settings: for Log10 Infection Rel EF-C: HIV-1 infection of TZM-bl cells
[2] = type: physicochemical; design: key to Fibril / Fibril Formation / TEM 2cat / Fibril: 1 = fibrils present; 0 non-fibrillar structures; settings: for Fibril: 1 = fibrils present
[3] = β-sheet content by ATR-FT-IR; type: physicochemical
In short: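 ATR FT-IR, diamond crystal, 64 scans, 2 cm^-1, on freeze-dried 1 mg/mL PNF; β-sheet per prior calculation. Fluorescamine CR: 3 kDa filter, DMSO redissolution, 20 min RT, ex 365/em 470 nm; values as n-fold enhancement over DMSO (set to 1).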

[4] = Zeta-potential measurement; type: physicochemical; settings: for Zeta-pot. / mV: zeta potential of peptide, Fig S15 source data
In short: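 One-day room-temperature aggregation at 1 mg/mL in PBS (pH 7.4) preceded measurement; samples then went into 1 mM KCl. Triplicates per sample, two independent experiments averaged.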

[5] = Feb2021, 1.3 µM value relative to virus only (0 µM)
[6] = Feb2021, Log10 of infectivity relative to EF-C
[7] = Feb2021, n-fold enhancement relative to EF-C
[8] = Feb2021, n-fold infectivity relative to EF-C
[9] = Feb2021, unrounded values of the 1.3 µM column
[10] = Feb2021 run, infectivity n-fold relative to virus alone
[11] = Feb2021 run, log10 of infectivity relative to EF-C
[12] = Feb2021 run, n-fold infectivity relative to EF-C
[13] = infectivity class (low / medium / high) of each library peptide, main list in c1-c6, same classes repeated in sub-lists of sequences containing the hydrophobicity/charge patterns P+,H0,P+,H0,P0,H0,P0, P+,H0,P0,H0,P0,H0,P0, P+,H0,P0,H0
[14] = log10 of HIV-1 infection of TZM-bl cells relative to EF-C, Fig S15 source data, asymmetric std dev errors

Substance | n-fold to virus (Feb2021) [1, 5] | Log10 of Rel to EFC (Feb2021) [1, 6] | Rel-to EFC (Feb-2021) [1, 7] | Rel-to EFC (Feb-2021) [1, 8] | Absolute Infectivity / RLU /s (Feb2021) [1, 9] | n-fold to virus (Feb2021) [1, 10] | Log10 of Rel to EFC (Feb2021) [1, 11] | Rel-to EFC (Feb-2021) [1, 12] | infectivity [1, 13] | Log10 Inf. rel. to EF-C [1, 14] | TEM: 1= fibrils, 0= aggregates (micelle), 0.5 = aggregates and fibrils, -1 = nothing obersved, STD prep [2] | FTIR ß-sheet content/ % [3] | FTIR ß-sheet content/ % ([3]; ATR-FT-IR) | Zeta category ( +1 = if > 4 mV;-1 = if < -4 mV; 0 = -4mV to 4 mV) [4] | Zeta category ( +1 = if > 4 mV;-1 = if < -4 mV; 0 = -4mV to 4 mV) ([4]; category from zeta potential) | Zeta Pot. / mV ([4]; mean, Std Zeta in next column) | Zeta Pot. / mV ([4]; mean, Std in separate column) | Zeta-pot. / mV [4] | other results
KAKAQANMWQ [JG3] | 0.3005 | -2.146 | 0.007152 | 0.007152 | 193.3 RLU /s | 0.3005 | -2.146 | 0.007152 | low | -2.146 | 0.5 | 42.81% | 43% and 42.81% | -1 (-1 = if < -4 mV) | -1 (-1 = if < -4 mV) | -19.63 mV | -19.63 mV | -19.63 mV | –
KFKFQF [JJA6] | 2.575 | -1.213 | 0.06128 | 0.06128 | 686.7 RLU /s | 2.575 | -1.213 | 0.06128 | low | -1.213 | 0.5 | 46% | 46% | -1 (-1 = if < -4 mV) | -1 (-1 = if < -4 mV) | -11.03 mV | -11.03 mV | -11.03 mV | –
KFKFQFNM [BL6a] | 19.81 | -0.3265 | 0.4715 | 0.4715 | 7067 RLU /s | 19.81 | -0.3265 | 0.4715 | medium | -0.3265 | 1 | 40.31% | 40% and 40.31% | 1 (+1 = if > 4 mV) | 1 (+1 = if > 4 mV) | 13.9 mV | 13.9 mV | 13.9 mV | –
KFKFQFNMW | – | – | – | – | – | – | – | – | – | – | – | – | – | – | – | – | – | – | Rel-EFC ([1]; 1.3 µM peptide, infection relative to EF-C (QCKIKQIINMWQ = 1)): 0,45; Log10 Infection Rel EFC ([1]; 1.3 µM peptide, log10 of infection relative to EF-C): -0,35; Log Infectivity ([1]; Fig. S7 panel A (plotted against β-sheet content), Log10 infection relative to EF-C, TZM-bl cells, asymmetric std dev errors): -0.3503; Log10 Infection Rel EF-C ([1]; Log10 of infection rate relative to EF-C, Figure 3A source data): -0.35; Log10 Infection Rel EF-C ([1]; infection rate relative to EF-C, log10, data of Figure 2D): -0.3503; Log10 Infection Rel EF-C ([1]; infection rate relative to EF-C, log10, source data of Figure 2C): -0.3503; Log10 of Rel to EFC (Feb2021) ([1]; Log10 of infection relative to EF-C, all peptides of FigS16): -0.35; Abs. Inf. ([1]; absolute infection signal, HIV-1 on TZM-bl cells, β-galactosidase luminescence): 6690; Log10 Inf. rel. to EF-C ([1]; log10 of HIV-1 infection of TZM-bl cells relative to EF-C (EF-C = 0)): -0.3503; TEM 2cat ([2]; Fig S10 panel D): 1; Fibril / Fibril Formation ([2]; TEM, 1 mg/mL, uranyl acetate stain, qualitative): 1; Fibril ([2]; TEM, 0 = non-fibrillar): 1; Fibril ([2]; TEM, 0 = non-fibrillar structures): 1; TEM 2cat ([2]; category: fibrils present or non-fibrillar): 1; b -sheet / % ([3]; Fig. S7 panel A, β-sheet content by ATR-FT-IR): 38.191%; Zeta-Pot. [4]: 22.6; Zeta-Potential / mV ([4]; zeta-potential of peptide, source data of Figure 2C): 16.22 mV; Zeta-Potential / mV ([4]; zeta-potential of the peptide assemblies, mean, Figure 3A source data): 22.6 mV
KFKFQFNMWQ [JG4] | 32.14 | -0.1164 | 0.7649 | 0.7649 | 20676.66667 RLU /s | 32.14 | -0.1164 | 0.7649 | high | -0.1164 | 1 | 43.15% | 43% and 43.15% | 1 (+1 = if > 4 mV) | 1 (+1 = if > 4 mV) | 25.4 mV | 25.4 mV | 25.4 mV | Absolute Infectivity / RLU /s (Feb2021) ([1]; Feb2021 data set, in other rows equals the 1.3 µM column, mean, STD in separate column): 20676.66667 RLU /s; Rel-to EFC (Feb-2021) ([1]; Feb2021 data set, infectivity enhancement relative to EF-C): 0.7649; n-fold to virus (Feb2021) ([1]; Feb2021 data set, infectivity n-fold to virus alone): 32.14; Log10 of Rel to EFC (Feb2021) ([1]; Feb2021 data set, log10 of infectivity relative to EF-C): -0.1164; Rel-to EFC ([1]; Fig S8 panels B, D, infectivity enhancement relative to EF-C): 0.7649; n-fold to virus ([1]; Fig S8 panels B, D, infectivity n-fold relative to virus alone): 32.1399; infectivity ([1]; infectivity class (low / medium / high) of the peptide in the sequence-pattern analysis, Fig. S22-A4, class limits not given): high; TEM: 1= fibrils, 0= aggregates (micelle), 0.5 = aggregates and fibrils, -1 = nothing obersved, STD prep ([2]; TEM): 1; Zeta Pot. / mV ([4]; mean, Std Zeta in separate column): 25.4 mV
KFKFQFW [TM71] | – | -0.7899 | – | 0.1622 | – | 6.817 | -0.7899 | 0.1622 | medium | -0.7899 | 1 | – | 0% | 1 (+1 = if > 4 mV) | – | 6.49 mV | 6.49 mV | 6.49 mV | Absolute Infectivity / RLU /s (Feb2021) ([1]; Feb2021, figures match the 1.3 µM column): 4953 RLU /s; Rel-to EFC (Feb-2021) ([1]; Feb2021, infectivity enhancement relative to EF-C): 0.1622; n-fold to virus (Feb2021) ([1]; Feb2021, infectivity relative to virus only): 6.817; Zeta Pot. / mV [4]: 6.49 mV; Zeta category ( +1 = if > 4 mV;-1 = if < -4 mV; 0 = -4mV to 4 mV) ([4]; category derived from the zeta potential): 1 (+1 = if > 4 mV)
KIKIQI [JJA4] | 2.845 | -1.169 | 0.06771 | 0.06771 | 550 RLU /s | 2.845 | -1.169 | 0.06771 | low | -1.169 | 0.5 | 38.6% | 39% and 38.6% | -1 (-1 = if < -4 mV) | -1 (-1 = if < -4 mV) | -5.63 mV | -5.63 mV | -5.63 mV | –
